Test results: patent US9062004B2, “Cannabinoid-2 agonists” (Allergan, Inc., priority 2010, dated 2015)

Columns and labels:
[1] = test system: mouse isolated vas deferens; test: Mouse isolated vas deferens (MVD) bioassay, electrically stimulated contractions; format: cell-based; conditions: vas deferens of male Swiss Webster mice, electrically evoked contractions, NA = not active; for EC50: Mus musculus, read-out: MVD Assay EC50
[2] = biological target: human CB2 cannabinoid receptor (Homo sapiens (Human), UniProt P34972); test: Radioligand binding assay, CB2 ([3H]-CP 55,940 competition); conditions: for IC50: plasma membranes of HEK 293 EBNA cells transfected with human CB2, 0.72 nM [3H]-CP 55,940, NA = not active; for CB2 Selectivity: CB2 versus CB1 binding (ratio of CB1 IC50 to CB2 IC50)
Sequence of human CB2 cannabinoid receptor (P34972 whole entry): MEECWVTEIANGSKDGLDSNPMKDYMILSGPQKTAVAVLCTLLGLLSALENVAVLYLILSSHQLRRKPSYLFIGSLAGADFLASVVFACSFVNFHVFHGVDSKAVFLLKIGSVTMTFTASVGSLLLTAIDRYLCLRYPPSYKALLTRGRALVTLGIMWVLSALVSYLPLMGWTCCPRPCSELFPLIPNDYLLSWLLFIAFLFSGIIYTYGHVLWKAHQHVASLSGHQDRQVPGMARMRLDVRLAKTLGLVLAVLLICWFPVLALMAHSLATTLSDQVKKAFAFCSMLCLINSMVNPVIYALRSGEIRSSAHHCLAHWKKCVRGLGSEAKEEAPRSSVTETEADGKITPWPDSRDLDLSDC
Description: (§1) A. Radioligand Binding Assay
(§2) Plasma membranes prepared from HEK 293 EBNA cells transfected with human CB1 or CB2 cannabinoid receptors ([…] protein, receptor concentration; PerkinElmer) were used for the radioligand binding studies. The composition of incubation buffer for CB1 assay was 50 mM Tris base, 2.5 mM EDTA, 5 mM MgCl2 and 0.5 mg/ml fatty acid free BSA and for CB2 assay was 50 mM Tris base, 2.5 mM EGTA, 5 mM MgCl2 and 1 mg/ml fatty acid free BSA; pH was adjusted to 7.4 by adding 1N HCl. Plasma membranes were diluted with incubation buffer to provide a final protein concentration of 2.4 μg (CB1) or 8 μg (CB2) per well in non-binding surface polystyrene 96-well assay plates (Corning). Compound solutions were prepared in silanized glass tubes and dispensed using pipette tips with SUPERSLIK™ surface. Competition studies were performed using a final concentration of 0.72 nM [^3H]-CP 55,940 (100-180 Ci/mmol, specific activity; PerkinElmer) against test compounds. Non-specific binding was determined using 10 uM of unlabeled CP 55,940. Incubations were performed in 96-well assay plates at a final volume of 200 ul for 90 min (CB1) or 60 min (CB2) at room temperature. Binding reactions were terminated by the addition of ice-cold incubation buffer and rapid filtration through a glass fiber filter using a cell harvester (Inotech). This was followed by 8 additional washes. The glass fiber filter (0.26 mm thickness, 1-1.5 um retention; Inotech) was presoaked in cold incubation buffer containing 0.05% polyethylenimine. The filters were oven-dried at 50° C. for 60 min and counting performed using a Beckman Coulter LS 6500 Multi-Purpose Scintillation Counter (Beckman-Coulter). Binding was determined in duplicate for at least 4 separate experiments.

[3] = biological target: human CB1 cannabinoid receptor (Homo sapiens (Human), UniProt P21554); test: Radioligand binding assay, CB1 ([3H]-CP 55,940 competition); conditions: plasma membranes of HEK 293 EBNA cells transfected with human CB1; 0.72 nM [3H]-CP 55,940; NA = not active
Sequence of human CB1 cannabinoid receptor (P21554 whole entry): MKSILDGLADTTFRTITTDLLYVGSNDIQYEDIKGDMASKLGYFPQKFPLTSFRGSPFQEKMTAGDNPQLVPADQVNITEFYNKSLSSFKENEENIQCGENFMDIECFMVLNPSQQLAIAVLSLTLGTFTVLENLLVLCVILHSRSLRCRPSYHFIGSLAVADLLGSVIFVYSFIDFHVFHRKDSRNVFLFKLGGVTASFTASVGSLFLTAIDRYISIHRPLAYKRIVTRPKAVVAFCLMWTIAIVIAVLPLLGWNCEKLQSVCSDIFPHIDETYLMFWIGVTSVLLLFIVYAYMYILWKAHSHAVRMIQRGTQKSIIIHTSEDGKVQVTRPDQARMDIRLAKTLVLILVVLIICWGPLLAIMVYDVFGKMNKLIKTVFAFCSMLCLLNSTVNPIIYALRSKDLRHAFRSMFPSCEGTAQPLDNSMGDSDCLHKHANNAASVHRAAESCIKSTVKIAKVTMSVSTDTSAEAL
Description: as §1, §2

SMILES	EC50 [1]	IC50 [2]	CB2 Selectivity [2]	IC50 [3]	MVD assay qualitative outcome [1]
CC1(C)CC(n2ncc(Cl)c(Cl)c2=O)CC(C)(C)C1 [Compound 2, 4,5-Dichloro-2-(3,3,5,5-tetramethyl-cyclohexyl)pyridazin-3-one]	> 10000 nM	389 nM	>26	> 10000 nM	
CNc1cnn(C2CC(C)(C)CC(C)(C)C2)c(=O)c1Cl [Compound 3, 4-Chloro-5-methylamino-2-(3,3,5,5-tetramethylcyclohexyl)pyridazin-3-one]	2900 nM	355 nM	>28	> 10000 nM	
CN(C)c1cnn(C2CC(C)(C)CC(C)(C)C2)c(=O)c1Cl [Compound 4, 4-Chloro-5-dimethylamino-2-(3,3,5,5-tetramethylcyclohexyl) pyridazin-3-one]	82 nM	17 nM	60	1020 nM	
CNc1cnn(C2CC(C)(C)CC(C)(C)C2)c(=O)c1 [Compound 6, 5-Methylamino-2-(3,3,5,5-tetramethyl-cyclohexyl)pyridazin-3-one]	10000 nM	2090 nM	>5	> 10000 nM	
CCCNc1cnn(C2CC(C)(C)CC(C)(C)C2)c(=O)c1 [Compound 8, 5-Propylamino-2-(3,3,5,5-tetramethyl-cyclohexyl)pyridazin-3-one]	440 nM	68 nM	>147	> 10000 nM	
CCCNc1cnn(-c2ccccc2)c(=O)c1Cl [Compound 9, 4-Chloro-2-phenyl-5-propylamino-pyridazin-3-one]	> 10000 nM	> 10000 nM			
CCCNc1cnn(-c2cc(C)cc(C)c2)c(=O)c1Cl [Compound 16, 4-Chloro-2-(3,5-dimethylphenyl)-5-propylaminopyridazin-3-one]	> 10000 nM	10000 nM		> 10000 nM	
Cc1cc(C)cc(-n2ncc(N(C)C)c(Cl)c2=O)c1 [Compound 17, 4-Chloro-5-dimethylamino-2-(3,5-dimethylphenyl)-pyridazin-3-one]		> 10000 nM			
Cc1cc(C)cc(-n2ncc(NCCN3CCOCC3)c(Cl)c2=O)c1 [Compound 18, 4-Chloro-2-(3,5-dimethylphenyl)-5-(2-morpholin-4-ylethylamino)-pyridazin-3-one]	~10000 nM	> 10000 nM		> 10000 nM	
CCCNc1cnn(-c2cc(C(F)(F)F)cc(C(F)(F)F)c2)c(=O)c1Cl [Compound 20, 2-(3,5-Bistrifluoromethylphenyl)-4-chloro-5-propylamino-pyridazin-3-one]	> 10000 nM	> 10000 nM		> 10000 nM	
CN(C)c1cnn(-c2cc(C(F)(F)F)cc(C(F)(F)F)c2)c(=O)c1Cl [Compound 21, 2-(3,5-Bistrifluoromethylphenyl)-4-chloro-5-dimethylaminopyridazin-3-one]	> 10000 nM	> 10000 nM			
O=c1c(Cl)c(NCCN2CCOCC2)cnn1-c1cc(C(F)(F)F)cc(C(F)(F)F)c1 [Compound 22, 2-(3,5-Bistrifluoromethylphenyl)-4-chloro-5-(2-morpholin-4-ylethyl-amino)pyridazin-3-one]	> 10000 nM	> 10000 nM			
CN(C)CCNc1cnn(-c2cc(C(F)(F)F)cc(C(F)(F)F)c2)c(=O)c1Cl [Compound 23, 2-(3,5-Bistrifluoromethylphenyl)-4-chloro-5-(2-dimethylaminoethylamino)pyridazin-3-one]					Increase
CCCNc1cnn(C(C)(C)C)c(=O)c1Cl [Compound 24, 2-t-Butyl-4-chloro-5-propylamino-pyridazin-3-one]	> 10000 nM	> 10000 nM			
CCCNc1cnn(-c2cc(Cl)cc(Cl)c2)c(=O)c1Cl [Compound 25, 4-Chloro-2-(3,5-dichlorophenyl)-5-propylaminopyridazin-3-one]	> 10000 nM	> 10000 nM		> 10000 nM	
CCCNc1cnn(-c2cc(C)ccc2C)c(=O)c1Cl [Compound 26, 4-Chloro-2-(2,5-dimethylphenyl)-5-propylaminopyridazin-3-one]	> 10000 nM	10000 nM			
CC(C)(C)n1ncc(NCCN2CCOCC2)c(Cl)c1=O [Compound 27, 2-t-Butyl-4-chloro-5-(2-morpholin-4-ylethylamino)-pyridazin-3-one]	> 10000 nM	> 10000 nM			
O=c1c(Cl)c(NCCN2CCOCC2)cnn1-c1cc(Cl)cc(Cl)c1 [Compound 28, 4-Chloro-2-(3,5-dichlorophenyl)-5-(2-morpholin-4-ylethylamino)-pyridazin-3-one]		> 10000 nM			Increase
Cc1ccc(C)c(-n2ncc(NCCN3CCOCC3)c(Cl)c2=O)c1 [Compound 29, 4-Chloro-2-(2,5-dimethylphenyl)-5-(2-morpholin-4-ylethylamino)-pyridazin-3-one]	> 10000 nM	> 10000 nM			
CCCNc1cnn(Cc2ccccc2)c(=O)c1Cl [Compound 30, 2-Benzyl-4-chloro-5-propylaminopyridazin-3-one]	> 10000 nM	> 10000 nM			
CCN(CC)CCNc1cnn(C2CC(C)(C)CC(C)(C)C2)c(=O)c1Cl [Compound 32, 4-Chloro-5-(2-diethylaminoethylamino)-2-(3,3,5,5-tetramethyl-cyclohexyl)pyridazin-3-one]	10000 nM	1290 nM			

Continued, in another order:

EC50 [1]	IC50 [2]	CB2 Selectivity [2]	SMILES	IC50 [3]	MVD assay qualitative outcome [1]
3700 nM	1820 nM		CC1(C)CC(n2ncc(O)cc2=O)CC(C)(C)C1 [Compound 1, 5-hydroxy-2-(3,3,5,5-tetramethyl-cyclohexyl)pyridazin-3-one]		
30 nM	5.4 nM	189	CCCNc1cnn(C2CC(C)(C)CC(C)(C)C2)c(=O)c1Cl [Compound 5, 4-Chloro-5-propylamino--2-(3,3,5,5-tetramethylcyclohexyl)pyridazin-3-one]	1020 nM	
2500 nM	380 nM	>26	CN(C)c1cnn(C2CC(C)(C)CC(C)(C)C2)c(=O)c1 [Compound 7, 5-Dimethylamino-2-(3,3,5,5-tetramethylcyclohexyl)pyridazin-3-one]	> 10000 nM	
> 10000 nM	10000 nM		CCCNc1cnn(C2CCCCC2)c(=O)c1Cl [Compound 10, 4-Chloro-2-cyclohexyl-5-propylaminopyridazin-3-one]		
320 nM	83 nM	48	CC1(C)CC(n2ncc(NCCN3CCOCC3)c(Cl)c2=O)CC(C)(C)C1 [Compound 11, 4-Chloro-5-(2-morpholin-4-ylethyl-amino)-2-(3,3,5,5-tetramethyl-cyclohexyl)pyridazin-3-one]	3980 nM	
2900 nM	204 nM	>49	CN(C)CCNc1cnn(C2CC(C)(C)CC(C)(C)C2)c(=O)c1Cl [Compound 12, 4-Chloro-5-(2-dimethylaminoethylamino)-2-(3,3,5,5-tetramethyl-cyclohexyl)pyridazin-3-one]	> 10000 nM	
21 nM	4.8 nM	36	CCCNc1cnn(C2CC(C)(C)CC(C)(C)C2)c(=O)c1Br [Compound 13, 4-Bromo-5-propylamino--2-(3,3,5,5-tetramethylcyclohexyl)pyridazin-3-one]	174 nM	
820 nM	42 nM	177	CN(C)CCNc1cnn(C2CC(C)(C)CC(C)(C)C2)c(=O)c1Br [Compound 14, 4-Bromo-5-(2-dimethylaminoethylamino)-2-(3,3,5,5-tetramethyl-cyclohexyl)pyridazin-3-one]	7410 nM	
86 nM	22.4 nM	83	CC1(C)CC(n2ncc(NCCN3CCOCC3)c(Br)c2=O)CC(C)(C)C1 [Compound 15, 4-Bromo-5-(2-morpholin-4-ylethylamino)-2-(3,3,5,5-tetramethyl-cyclohexyl)pyridazin-3-one]	1860 nM	
> 10000 nM			CCCNc1cnn(CC(C)(C)C)c(=O)c1Cl [Compound 33, 4-Chloro-2-(2,2-dimethylpropyl)-5-propylaminopyridazin-3-one]		
2900 nM	2040 nM		CN(C)CCn1cc2c(=O)n(C3CC(C)(C)CC(C)(C)C3)ncc2n1 [Compound 39, 2-(2-Dimethylaminoethyl)-5-(3,3,5,5-tetramethylcyclohexyl)pyrazolo[3,4-d]pyridazin-4-one]		
